Reference: US7435850B2, “Naphthalene compounds” (Les Laboratoires Servier, priority 2006, dated 2008)

Experiments:
MT2 receptor = molecular target: T1, MT2 receptor (Homo sapiens, UniProt P49286); test: Melatonin MT2 receptor binding study
T1 sequence (P49286 1-362): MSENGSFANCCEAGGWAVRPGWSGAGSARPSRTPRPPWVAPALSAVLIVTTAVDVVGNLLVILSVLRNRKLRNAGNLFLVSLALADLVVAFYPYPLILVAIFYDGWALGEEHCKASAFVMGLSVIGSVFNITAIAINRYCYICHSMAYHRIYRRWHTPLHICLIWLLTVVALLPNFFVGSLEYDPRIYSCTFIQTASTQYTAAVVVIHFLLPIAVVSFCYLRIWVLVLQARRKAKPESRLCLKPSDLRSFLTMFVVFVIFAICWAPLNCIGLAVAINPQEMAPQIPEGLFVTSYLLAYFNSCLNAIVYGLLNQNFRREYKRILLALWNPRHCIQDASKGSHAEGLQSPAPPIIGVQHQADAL
Method: (§1) The MT1 or MT2 receptor binding experiments are carried out using 2-[^125 I]-iodomelatonin as reference radioligand. The radioactivity retained is determined using a liquid scintillation counter.
(§2) Competitive binding experiments are then carried out in triplicate using the various test compounds. A range of different concentrations is tested for each compound. The results enable the binding affinities of the compounds tested (Ki) to be determined.

MT1 receptor = MT1 receptor (Homo sapiens, UniProt P48039); test: Melatonin MT1 receptor binding study
Chain of MT1 receptor (P48039 whole entry): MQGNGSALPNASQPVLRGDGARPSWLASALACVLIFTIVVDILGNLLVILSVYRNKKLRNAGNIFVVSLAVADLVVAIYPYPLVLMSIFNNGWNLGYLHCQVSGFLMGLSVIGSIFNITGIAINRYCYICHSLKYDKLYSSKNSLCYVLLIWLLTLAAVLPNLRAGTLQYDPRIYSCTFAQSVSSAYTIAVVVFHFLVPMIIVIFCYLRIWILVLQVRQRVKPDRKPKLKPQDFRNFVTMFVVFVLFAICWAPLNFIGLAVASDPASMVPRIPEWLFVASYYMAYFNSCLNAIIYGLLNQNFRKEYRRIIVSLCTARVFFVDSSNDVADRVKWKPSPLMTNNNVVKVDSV
Method: as §1, §2

COc1ccc2cccc(C(CO)CNC(=O)CF)c2c1 (centres unmarked) [Example 1, 2-Fluoro-N-[3-hydroxy-2-(7-methoxy-1-naphthyl)propyl]acetamide]
Ki (MT2 receptor): 0.5 nM
Ki (MT1 receptor): 4.7 nM
